# Assay results from ChEMBL document CHEMBL1154330, “Cucurbitane-type triterpenoids from the African plant Momordica balsamina” (J Nat Prod, 2009).
# Test system: MCF7
# Assay: Cytotoxicity against human MCF7 cells after 24 hrs by MTT assay
# Assay type: functional, cell-based
# Conditions: MCF7, 24 h
smiles,measurement,value
CO[C@H]1C=C2[C@@H](CC[C@H](O)[C@]2(C)CO)[C@]2(C)CC[C@]3(C)[C@@H]([C@H](C)C[C@@H](O)C=C(C)C)CC[C@@]3(C)[C@H]12 [BALSAMINOL B],IC50,55.3 µM
COc1cccc2c1C(=O)c1c(O)c3c(c(O)c1C2=O)C[C@@](O)(C(=O)CO)C[C@@H]3O[C@H]1C[C@H](N)[C@H](O)[C@H](C)O1 [DOXORUBICIN],IC50,0.92 µM
CC(C)=C[C@H](O)C[C@@H](C)[C@H]1CC[C@@]2(C)[C@@H]3[C@@H](O)C=C4[C@@H](CC[C@H](O)[C@]4(C)CO)[C@]3(C)CC[C@]12C [BALSAMINOL A],IC50,40 µM
C=C(C)[C@@H](O)[C@H](O)C[C@@H](C)[C@H]1CC[C@@]2(C)[C@@H]3[C@@H](O)C=C4[C@@H](CC[C@H](O)[C@]4(C)CO)[C@]3(C)CC[C@]12C [BALSAMINAPENTAOL A],IC50,47 µM
C[C@H](C/C=C/C(C)(C)O)[C@H]1CC[C@@]2(C)[C@@H]3[C@@H](O)C=C4[C@@H](CC[C@H](O)C4(C)C)[C@]3(C)CC[C@]12C,IC50,45.3 µM
CC(C)=C[C@H](O)C[C@@H](C)[C@H]1CC[C@@]2(C)[C@@H]3C=C[C@@]45OC[C@]3(CC[C@]12C)[C@@H]4CC[C@H](O)C5(C)C [KARAVILAGENIN E],IC50,30.7 µM
C[C@H](C/C=C/C(C)(C)O)[C@H]1CC[C@@]2(C)[C@@H]3[C@@H](O)C=C4[C@@H](CC[C@H](O)C4(C)C)[C@]3(C)C[C@@H](O)[C@]12C [CUCURBALSAMINOL A],IC50,> 133 µM
